In patent US8575197B2, “Pyrolinone derivative and pharmaceutical composition comprising the same” (Shionogi & Co., Ltd., priority 2008, dated 2013):

What follows are molecules tested against human P2X3 receptor (Homo sapiens (Human), UniProt P56373) (assay: P2X3 receptor inhibition, ATP-evoked Fluo-3 calcium fluorescence (FDSS 3000)). Settings: C6BU-1 cell transfected with human P2X3 receptor gene; ATP-evoked Fluo-3 fluorescence.
Assay type: cell-based
Procedure, shortened: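 C6BU-1 cells stably transfected with human P2X3, loaded with 4 μM Fluo-3-AM for 1 h at 37 °C in HEPES buffer pH 7.5 with probenecid. Compound added 5 min before 40 nM ATP solution; fluorescence followed 3 min. IC50 from ratio of peak post-ATP to baseline fluorescence.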

Chain of human P2X3 receptor (P56373 whole entry): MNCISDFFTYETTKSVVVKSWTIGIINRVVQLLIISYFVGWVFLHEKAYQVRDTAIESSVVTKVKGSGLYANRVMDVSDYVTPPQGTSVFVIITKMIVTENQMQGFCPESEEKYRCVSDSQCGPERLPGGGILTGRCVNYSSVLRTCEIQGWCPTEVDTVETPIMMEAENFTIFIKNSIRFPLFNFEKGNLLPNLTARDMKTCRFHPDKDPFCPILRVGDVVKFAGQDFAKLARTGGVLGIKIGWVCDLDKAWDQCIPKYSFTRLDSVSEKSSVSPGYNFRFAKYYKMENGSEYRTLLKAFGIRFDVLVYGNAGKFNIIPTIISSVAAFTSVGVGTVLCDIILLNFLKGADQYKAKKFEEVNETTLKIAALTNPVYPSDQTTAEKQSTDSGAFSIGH

Compound	IC50
COc1ccccc1C1c2c(C(C)(C)C(=O)O)n[nH]c2C(=O)N1c1ccc(-c2ccsc2)cc1 (stereo not shown) [II-165]	41 nM
CN(C)C(=O)COc1ccccc1C1c2c(C(C)(C)C)n[nH]c2C(=O)N1c1ccc(-c2ccsc2)cc1 (stereo not shown) [II-166]	7 nM
CNC(=O)COc1ccccc1C1c2c(C(C)(C)C)n[nH]c2C(=O)N1c1ccc(-c2ccsc2)cc1 (stereo not shown) [II-167]	5 nM
C[S+]([O-])CCOc1ccccc1C1c2c(C(C)(C)C)n[nH]c2C(=O)N1c1ccc(-c2ccon2)cc1 (stereo not shown) [II-168]	101 nM
CC(C)(C)c1n[nH]c2c1C(c1ccccc1OCC(N)=O)N(c1ccc(-c3ccsc3)cc1)C2=O (stereo not shown) [II-169]	4 nM
CNC(=O)C(C)(C)c1n[nH]c2c1C(c1ccccc1OC)N(c1ccc(-c3ccsc3)cc1)C2=O (stereo not shown) [II-170]	34 nM
CC(C)(C)c1n[nH]c2c1C(c1ccccc1OCCNS(C)(=O)=O)N(c1ccc(-c3ccsc3)cc1)C2=O (stereo not shown) [II-171]	7 nM
COc1ccccc1C1c2c(C(C)(C)C(=O)N(C)C)n[nH]c2C(=O)N1c1ccc(-c2ccsc2)cc1 (stereo not shown) [II-172]	11 nM
CC(C)(C)c1n[nH]c2c1C(c1ccccc1OCC#N)N(c1ccc(-c3ccsc3)cc1)C2=O (stereo not shown) [II-173]	4 nM
CC(C)(C)c1n[nH]c2c1C(c1ccccc1OCc1nnn[nH]1)N(c1ccc(-c3ccsc3)cc1)C2=O (stereo not shown) [II-174]	3 nM
CC(C)c1n[nH]c2c1C(c1ccccc1OCc1nnn[nH]1)N(c1ccc(-c3ccsc3)cc1)C2=O (stereo not shown) [II-175]	3 nM
CC(=O)NCCOc1ccccc1C1c2c(C(C)C)n[nH]c2C(=O)N1c1ccc(-c2ccsc2)cc1 (stereo not shown) [II-176]	10 nM
COc1ccccc1C1c2c(-c3ccco3)n[nH]c2C(=O)N1c1ccc(-c2ccsc2)cc1 (stereo not shown) [II-178]	149 nM
COc1ccccc1C1c2c(C(=O)N(C)C)n[nH]c2C(=O)N1c1ccc(-c2ccsc2)cc1 (stereo not shown) [II-180]	262 nM
CNC(=O)c1n[nH]c2c1C(c1ccccc1OC)N(c1ccc(-c3ccsc3)cc1)C2=O (stereo not shown) [II-181]	301 nM
COc1ccccc1C1c2c(CO)n[nH]c2C(=O)N1c1ccc(-c2ccsc2)cc1 (stereo not shown) [II-182]	60 nM
CCOC(=O)C1c2c(C(C)C)n[nH]c2C(=O)N1c1ccc(-c2ccsc2)cc1 (stereo not shown) [II-183]	460 nM
CC(C)c1n[nH]c2c1C(c1ccccc1OCC(C)(C)O)N(c1ccc(-c3ccsc3)cc1)C2=O (stereo not shown) [II-184]	12 nM
CC(C)c1n[nH]c2c1C(c1ccccc1OCC(=N)NO)N(c1ccc(-c3ccsc3)cc1)C2=O (stereo not shown) [II-185]	11 nM
COc1ccccc1C1c2c(C(C)=O)n[nH]c2C(=O)N1c1ccc(-c2ccsc2)cc1 (stereo not shown) [II-188]	156 nM
COc1ccccc1C1c2c(C(C)C)n[nH]c2CN1C(=O)Nc1ccc(-c2ccsc2)cc1 (stereo not shown) [II-189]	897 nM
COc1ncccc1C1c2c(C(C)(C)C)n[nH]c2C(=O)N1c1ccc(-c2cc(C)no2)cc1 (stereo not shown) [II-191]	322 nM
COc1ncccc1C1c2c(C(C)(C)C)n[nH]c2C(=O)N1c1ccc(C2=NCCS2)cc1 (stereo not shown) [II-192]	222 nM

Compound	IC50
COc1ncccc1C1c2c(C(C)(C)C)n[nH]c2C(=O)N1c1ccc(-c2nccs2)cc1 (stereo not shown) [II-193]	195 nM
COc1ncccc1C1c2c(C(C)(C)C)n[nH]c2C(=O)N1c1ccc(-c2noc(C)n2)cc1 (stereo not shown) [II-194]	392 nM
COc1ncccc1C1c2c(C(C)(C)C)n[nH]c2C(=O)N1c1ccc(-c2nc(C)no2)cc1 (stereo not shown) [II-195]	944 nM
COc1ccccc1C1c2c(C(C)(C)C)n[nH]c2C(=O)N1c1ccc(C)cc1 (stereo not shown) [II-196]	783 nM
COc1ccccc1C1c2c(C(C)(C)C)n[nH]c2C(=O)N1c1ccc(C(C)C)cc1 (stereo not shown) [II-197]	106 nM
COc1ccc(C2(c3n[nH]c4c3C(c3ccccc3OC)N(c3ccc(-c5ccon5)cc3)C4=O)CC2)cc1 (stereo not shown) [II-198]	123 nM
COc1ccccc1C1c2c(C(C)(C)c3ccccc3)n[nH]c2C(=O)N1c1ccc(-c2ccon2)cc1 (stereo not shown) [II-199]	113 nM
COc1ccc(-c2n[nH]c3c2C(C2CCCCC2)N(Cc2cc(C)on2)C3=O)cc1 (stereo not shown) [II-200]	448 nM
COc1ccccc1C1c2c(C(C)(C)C)n[nH]c2C(=O)N1c1ccc(SC)cc1 (stereo not shown) [II-201]	33 nM
COc1ccccc1C1c2c(C(C)(C)C)n[nH]c2C(=O)N1c1ccc(N(C)C)cc1 (stereo not shown) [II-202]	76 nM
COc1ccccc1C1c2c(C(C)(C)C)n[nH]c2C(=O)N1c1ccc(-c2ccco2)cc1 (stereo not shown) [II-203]	28 nM
COc1ccccc1C1c2c(C(C)(C)C)n[nH]c2C(=O)N1c1ccc(-c2ccsc2)cc1 (stereo not shown) [II-204]	17 nM
COc1ccccc1C1c2c(C(C)(C)C)n[nH]c2C(=O)N1c1ccc(-c2cccn2C)cc1 (stereo not shown) [II-205]	811 nM
COc1ccccc1C1c2c(C(C)(C)C)n[nH]c2C(=O)N1c1ccc(-c2ccccc2)cc1 (stereo not shown) [II-208]	112 nM
COc1ccccc1C1c2c(C(C)(C)C)n[nH]c2C(=O)N1c1ccc(-c2ncco2)cc1 (stereo not shown) [II-209]	87 nM
COc1ccccc1C1c2c(C(C)(C)C)nn(C(=O)OC(C)(C)C)c2C(=O)N1c1ccc(Br)cc1 (stereo not shown) [II-211]	135 nM
COc1ccccc1C1c2c(C(C)(C)C)n[nH]c2C(=O)N1c1ccc(-c2cccs2)cc1 (stereo not shown) [II-213]	11 nM
COc1ccccc1C1c2c(C(C)(C)CO)n[nH]c2C(=O)N1c1ccc(-c2ccco2)cc1 (stereo not shown) [II-215]	15 nM
COc1ccccc1C1c2c(C(C)(C)CO)n[nH]c2C(=O)N1c1ccc(-c2ccsc2)cc1 (stereo not shown) [II-217]	3 nM
COc1ccccc1C1c2c(C(C)(C)CO)n[nH]c2C(=O)N1c1ccc(-c2cccs2)cc1 (stereo not shown) [II-218]	5 nM
COc1ccccc1C1c2c(C(C)(C)CO)n[nH]c2C(=O)N1c1ccc(-c2ccoc2)cc1 (stereo not shown) [II-219]	14 nM
COc1ncccc1C1c2c(C(C)(C)C)n[nH]c2C(=O)N1c1ccc(-c2ccoc2)cc1 (stereo not shown) [II-220]	69 nM

Other lines, results leading:

IC50	Compound
23 nM	COc1ncccc1C1c2c(C(C)(C)C)n[nH]c2C(=O)N1c1ccc(-c2ccsc2)cc1 (stereo not shown) [II-223]
31 nM	COc1ncccc1C1c2c(C(C)(C)C)n[nH]c2C(=O)N1c1ccc(-c2cccs2)cc1 (stereo not shown) [II-224]
979 nM	COc1ccc(-c2n[nH]c3c2C(c2ccccc2OC)N(CCc2ccco2)C3=O)cc1 (stereo not shown) [II-225]
82 nM	COC(=O)n1nc(C(C)(C)C)c2c1C(=O)N(c1ccc(Br)cc1)C2c1ccccc1OC (stereo not shown) [II-229]
344 nM	COc1ccc(-c2n[nH]c3c2C(c2ccccc2OC)N(CCCc2ccco2)C3=O)cc1 (stereo not shown) [II-231]
16 nM	COc1ccccc1C1c2c(C(C)(C)CO)n[nH]c2C(=O)N1c1ccc(-c2cc[nH]c2)cc1 (stereo not shown) [II-232]
92 nM	CC(C)c1n[nH]c2c1C(c1ccccn1)N(c1ccc(-c3ccsc3)cc1)C2=O (stereo not shown) [II-233]
130 nM	CC(C)(CO)c1n[nH]c2c1C(c1ccccn1)N(c1ccc(-c3ccsc3)cc1)C2=O (stereo not shown) [II-234]
17 nM	COc1cc(N2C(=O)c3[nH]nc(C(C)C)c3C2c2ccccc2OC)ccc1-c1ccsc1 (stereo not shown) [II-235]
5 nM	CC(C)c1n[nH]c2c1C(c1ccccc1OC(CO)CO)N(c1ccc(-c3ccsc3)cc1)C2=O (stereo not shown) [II-236]
853 nM	COc1ccccc1C1c2c(C(C)C)n[nH]c2C(=O)N1c1ccc(-c2ccsc2)c(NC(C)=O)c1 (stereo not shown) [II-237]
19 nM	COc1ccccc1C1c2c(C(C)C)n[nH]c2C(=O)N1c1ccc(-c2ccsc2)c(F)c1 (stereo not shown) [II-238]
205 nM	COc1ccccc1C1c2c(C(C)C)n[nH]c2C(=O)N1c1ccc(-c2ccsc2)c(C)c1 (stereo not shown) [II-239]
116 nM	COc1ccccc1C1c2c(C(C)C)n[nH]c2C(=O)N1c1ccc(-c2ccsc2)c(N)c1 (stereo not shown) [II-240]
213 nM	COC(=O)c1cc(N2C(=O)c3[nH]nc(C(C)C)c3C2c2ccccc2OC)ccc1-c1ccsc1 (stereo not shown) [II-241]
152 nM	COc1ccccc1C1c2c(C(C)C)n[nH]c2C(=O)N1c1ccc(-c2ccsc2)c(C(N)=O)c1 (stereo not shown) [II-242]
138 nM	COc1ccccc1C1c2c(C(C)C)n[nH]c2C(=O)N1c1ccc(-c2ccsc2)c(CO)c1 (stereo not shown) [II-243]

IC50	Compound
144 nM	COc1ccccc1C1c2c(C(C)C)n[nH]c2C(=O)N1c1ccc(-c2ccsc2)c(N(C)C)c1 (stereo not shown) [II-244]
6 nM	CC(C)c1n[nH]c2c1C(c1ccccc1OCCS(C)(=O)=O)N(c1ccc(-c3ccsc3)cc1)C2=O (stereo not shown) [II-245]
871 nM	COc1ccccc1C1c2c(C(C)(C)C)n[nH]c2C(=O)N1c1ccc(Br)cn1 (stereo not shown) [II-246]
33 nM	COc1ccccc1C1c2c(C(C)(C)C)n[nH]c2C(=O)N1c1ccc(-c2ccoc2)cn1 (stereo not shown) [II-247]
13 nM	COc1ccccc1C1c2c(C(C)(C)C)n[nH]c2C(=O)N1c1ccc(-c2ccsc2)cn1 (stereo not shown) [II-248]
43 nM	COc1ccccc1C1c2c(C(C)(C)CO)n[nH]c2C(=O)N1c1ccc(-c2ccoc2)cn1 (stereo not shown) [II-250]
8 nM	COc1ccccc1C1c2c(C(C)(C)CO)n[nH]c2C(=O)N1c1ccc(-c2ccsc2)cn1 (stereo not shown) [II-251]
20 nM	COc1ccccc1C1c2c(C(C)(C)C)n[nH]c2C(=O)N1c1ccc(-c2ccoc2)nc1 (stereo not shown) [II-253]
2 nM	COc1ccccc1C1c2c(C(C)(C)C)n[nH]c2C(=O)N1c1ccc(-c2ccsc2)nc1 (stereo not shown) [II-254]
3 nM	COc1ccccc1C1c2c(C(C)(C)C)n[nH]c2C(=O)N1c1ccc(-c2cccs2)nc1 (stereo not shown) [II-255]
18 nM	COc1ccccc1C1c2c(C(C)(C)C)n[nH]c2C(=O)N1c1ccc(-c2cccs2)cn1 (stereo not shown) [II-256]
33 nM	COc1ccccc1C1c2c(C(C)(C)C)n[nH]c2C(=O)N1c1ccc(-c2ccco2)cn1 (stereo not shown) [II-257]
304 nM	COc1ccccc1C1c2c(C(C)(CO)CO)n[nH]c2C(=O)N1c1ccc(-c2ccon2)cc1 (stereo not shown) [II-258]
410 nM	COc1ncccc1C1c2c(C(C)(C)C)n[nH]c2C(=O)N1c1ccc(Br)cn1 (stereo not shown) [II-259]
36 nM	COc1ncccc1C1c2c(C(C)(C)C)n[nH]c2C(=O)N1c1ccc(-c2cccs2)cn1 (stereo not shown) [II-260]
140 nM	COc1ncccc1C1c2c(C(C)(C)C)n[nH]c2C(=O)N1c1ccc(-c2ccoc2)cn1 (stereo not shown) [II-261]
39 nM	COc1ncccc1C1c2c(C(C)(C)C)n[nH]c2C(=O)N1c1ccc(-c2ccsc2)cn1 (stereo not shown) [II-262]
